The values that follow come from publication PMC9822058, “In Vitro Evaluation of α-amylase and α-glucosidase Inhibition of 2,3-Epoxyprocyanidin C1 and Other Constituents from Pterocarpus erinaceus Poir” (Molecules, 2022).

Test [1] addresses α-amylase from Bacillus licheniformis (Bacillus licheniformis, UniProt P06278). The test can be described thus: biochemical. Particulars: for inhibition at 50 µg/mL: read-out: α-amylase (% inh. at 50 µg/mL); for α-amylase inhibitory potential (in words): within the tested concentrations. In kind it is biochemical. The protocol:
The α-amylase inhibitory activity was evaluated by using the starch– iodine method with some modifications. The enzyme α-amylase from Bacillus licheniformis was used and enzyme solution was prepared with phosphate buffer (20 mM pH = 6.9 phosphate buffer prepared with 6 mM NaCl); then, 50 µL of α-amylase and 25 µL of different concentrations of compound or extract solutions were mixed in a 96-well microplate. The mixture was pre-incubated for 10 min at 37 °C; then, 50 µL of starch solution (0.05%) was added and incubated for 10 min at 37 °C. Following incubation, the reaction was completed by adding HCl (0.1 M, 25 µL) and Lugol (100 µL) solutions, and the absorbance was recorded at 565 nm.

Test [2] concerns α-glucosidase from Saccharomyces cerevisiae. The test can be described thus: α-glucosidase inhibitory assay (PNPG substrate). In kind it is biochemical. Conditions: for α-glucosidase (% inh. at 50 µg/mL): highest test concentration; for α-glucosidase inhibitory potential (in words): within the tested concentrations. On the procedure:
The α-glucosidase inhibitory activity was evaluated according to the method described previously. 50 µL of phosphate buffer (0.01 M pH 6.9), 10 µL of different concentrations of compound or extract solution, 50 µL of α-glucosidase from Saccharomyces cerevisiae in phosphate buffer (0.01 M pH 6.0) and PNPG (4-N-nitrophenyl-α-D-glucopyranoside) 25 µL in phosphate buffer (0.01 M pH 6.9) were mixed in a 96-well microplate. The solution was then incubated for 20 min at 37 °C.

Another test has as its system STZ-induced diabetes. Conditions: doses of 20 and 40 mg/kg; cited from earlier work.
Where [3] appears, read: read-out: α-amylase IC50 (converted).

Read-outs that look alike come from different tables or passages of the source.

Sequence of α-amylase from Bacillus licheniformis (P06278 30-512): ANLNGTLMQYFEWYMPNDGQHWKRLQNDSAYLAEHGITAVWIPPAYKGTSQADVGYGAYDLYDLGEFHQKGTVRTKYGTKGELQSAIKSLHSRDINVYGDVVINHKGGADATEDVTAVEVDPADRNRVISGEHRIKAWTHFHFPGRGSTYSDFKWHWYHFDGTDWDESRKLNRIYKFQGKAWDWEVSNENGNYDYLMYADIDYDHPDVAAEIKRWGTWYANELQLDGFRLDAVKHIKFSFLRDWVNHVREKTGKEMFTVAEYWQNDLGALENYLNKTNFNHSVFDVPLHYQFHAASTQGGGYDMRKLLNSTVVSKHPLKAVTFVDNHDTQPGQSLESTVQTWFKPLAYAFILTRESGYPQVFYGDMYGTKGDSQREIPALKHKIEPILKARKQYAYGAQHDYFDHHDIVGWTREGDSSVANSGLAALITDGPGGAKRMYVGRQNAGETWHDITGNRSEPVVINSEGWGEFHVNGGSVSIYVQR

Take `C[C@H]1O[C@H](O[C@H]2[C@H](O)[C@@H](O)[C@@H](O[C@H]3[C@H](O)[C@@H](O)C(O)O[C@@H]3CO)O[C@@H]2CO)[C@H](O)[C@@H](O)[C@@H]1N[C@H]1C=C(CO)[C@@H](O)[C@H](O)[C@H]1O` (some centres unmarked) [Acarbose, reference compound]: the inhibition at 50 µg/mL in test [1] stood at 72.5 ± 1.5%. Besides, the “α-glucosidase (% inh. at 50 µg/mL)” value in test [2] was 81.7 ± 0.8%.

Take `Oc1cc(O)c2c(c1)OC1(c3ccc(O)c(O)c3)OC1C2c1c(O)cc(O)c2c1OC(c1ccc(O)c(O)c1)C(O)C2c1c(O)cc(O)c2c1OC(c1ccc(O)c(O)c1)C(O)C2` (centres unmarked) [compound 1, 2,3-Epoxyprocyanidin C1]: the inhibition at 50 µg/mL in test [1] was determined as 34.3 ± 0.7%. Also, in test [1] (setting [3]), the IC50 (commonly the concentration that gives 50% inhibition) was > 57.8 µM. In test [2], the “α-glucosidase IC50” value was 41.6 ± 1.0 µg/mL and the “α-glucosidase (% inh. at 50 µg/mL)” value is listed as 53.4 ± 1.6%.

On to `C[C@H]1C(=O)CC[C@@H]2[C@]1(C)CC[C@H]1[C@@]2(C)CC[C@@]2(C)[C@@H]3CC(C)(C)CC[C@]3(C)CC[C@]12C` [compound 2, friedelin], for which, in test [1], the IC50 is > 117 µM, the inhibition at 50 µg/mL was 21.5 ± 0.6% and the “α-amylase inhibitory potential (in words)” value is recorded as “relatively low”. Also, the “antidiabetic potential in STZ-induced diabetic rats” value in the test on STZ-induced diabetes was “antidiabetic potential”. Besides, in test [2], the “α-glucosidase IC50” value is >50 µg/mL, the “α-glucosidase (% inh. at 50 µg/mL)” value turned out to be 32.1 ± 0.1% and the “α-glucosidase inhibitory potential (in words)” value is given as “relatively low”.

For the compound `C=C(C)[C@@H]1CC[C@]2(CO)CC[C@]3(C)[C@H](CC[C@@H]4[C@@]5(C)CC[C@H](O)C(C)(C)[C@@H]5CC[C@]43C)[C@@H]12` [compound 3, betulin], in test [1], the IC50 is > 113 µM, the inhibition at 50 µg/mL is 19.3 ± 0.4% and the “α-amylase inhibitory potential (in words)” value is on record as “relatively low”. Further, in test [2], the “α-glucosidase IC50” value is >50 µg/mL, the “α-glucosidase (% inh. at 50 µg/mL)” value amounted to 28.5 ± 0.3% and the “α-glucosidase inhibitory potential (in words)” value is listed as “relatively low”.

Turning to `COc1ccc(C(C)C(=O)c2ccc(O)cc2O)cc1` (centres unmarked) [compound 4, angolensin], the inhibition at 50 µg/mL in test [1] stood at 33.7 ± 0.5%. The IC50 in test [1] (setting [3]) was > 184 µM. In test [2], the “α-glucosidase IC50” value came to 43.4 ± 0.5 µg/mL and the “α-glucosidase (% inh. at 50 µg/mL)” value is 54.1 ± 1.3%.

As to `COc1cc(O)c2c(=O)c(-c3ccc(O)cc3)coc2c1` [compound 5, 7-methoxygenistein], in test [1], the IC50 was > 176 µM and the inhibition at 50 µg/mL came out at 32.2 ± 1%. For the same compound, in test [2], the “α-glucosidase IC50” value came out at 47.6 ± 0.9 µg/mL and the “α-glucosidase (% inh. at 50 µg/mL)” value stood at 50.6 ± 1.2%.

Turning to `COc1ccc2c(=O)c(-c3ccc(O)cc3)coc2c1` [compound 6, 7-methoxydaidzein], the inhibition at 50 µg/mL in test [1] worked out at 34.2 ± 0.5%. For the same compound, the IC50 in test [1] (setting [3]) was > 186 µM. Further, in test [2], the “α-glucosidase IC50” value came out at 46.3 ± 0.2 µg/mL and the “α-glucosidase (% inh. at 50 µg/mL)” value stood at 51.8 ± 0.9%.

With `COc1c(-c2ccc(O)c(O)c2)oc2cc(O)cc(O)c2c1=O` [compound 7, 3-O-methyl quercetin], in test [1], the inhibition at 50 µg/mL is 50.2 ± 2%. Further, the IC50 in test [1] (setting [3]) is 152 µM. Also, in test [2], the “α-glucosidase IC50” value stood at 39.5 ± 1.2 µg/mL and the “α-glucosidase (% inh. at 50 µg/mL)” value is 54.0 ± 1.0%.

Consider `O=C(O)[C@H]1O[C@@H](Oc2cc(O)c3c(=O)cc(-c4ccc(O)cc4)oc3c2)[C@H](O)[C@@H](O)[C@@H]1O` [compound 8, apigenin 7-O-glucoronide], for which the inhibition at 50 µg/mL in test [1] was 50.9 ± 0.8%. Moreover, in test [1] (setting [3]), the IC50 was 109 µM. Moreover, in test [2], the “α-glucosidase IC50” value stood at 40.9 ± 1.3 µg/mL and the “α-glucosidase (% inh. at 50 µg/mL)” value is 55.2 ± 1.1%.

As for `O=C1C[C@@H](c2ccc(O)cc2)Oc2cc(O[C@@H]3O[C@H](CO)[C@@H](O)[C@H](O)[C@H]3O)cc(O)c21` [compound 9, naringenin 7-O-β-D-glucopyranoside], in test [1], the inhibition at 50 µg/mL turned out to be 50.5 ± 1.2%. In test [2], the “α-glucosidase IC50” value is recorded as 44.8 ± 0.6 µg/mL and the “α-glucosidase (% inh. at 50 µg/mL)” value worked out at 53.7 ± 0.4%.

With `COc1cc2c(=O)oc3c(OC)c(OC4OC(COC5OC(C)C(O)C(O)C5O)C(O)C(O)C4O)cc4c(=O)oc(c1OC)c2c34` (centres unmarked) [compound 10, 3,3′,4-Trimethoxy-4′-rutinosylellagic acid], in test [1], the inhibition at 50 µg/mL is 45.4 ± 0.3%. Also, in test [1] (setting [3]), the half-inhibitory concentration (IC50) was > 76.6 µM. Moreover, in test [2], the “α-glucosidase IC50” value stood at 45.0 ± 0.8 µg/mL and the “α-glucosidase (% inh. at 50 µg/mL)” value worked out at 51.8 ± 0.9%.

For the compound `COc1cc2c(=O)oc3c(OC)c(OC4OC(COC5OC(C)C(OC(C)=O)C(OC(C)=O)C5OC(C)=O)C(OC(C)=O)C(OC(C)=O)C4OC(C)=O)cc4c(=O)oc(c1OC)c2c34` (centres unmarked) [compound 11, 3,3′,4-Trimethoxy-4′-hexaacetylrutinosylellagic acid], the inhibition at 50 µg/mL in test [1] came to 43.5 ± 0.6%. In addition, the half-inhibitory concentration (IC50) in test [1] (setting [3]) was > 55.3 µM. In test [2], the “α-glucosidase IC50” value amounted to 47.5 ± 0.4 µg/mL and the “α-glucosidase (% inh. at 50 µg/mL)” value is on record as 50.7 ± 0.2%.
